A word on the IC50: it is the midpoint of a concentration-inhibition curve.

The values below come from patent US20260070886A1, “QUINOLINE PIPERAZINE DERIVATIVES, PHARMACEUTICAL COMPOSITION AND USES THEREOF” (priority 2022, published 2026).

The test system of one data set is NCI-H-460 cells. The data set is described as follows: Cell cytotoxicity assay, NCI-H-460 cells. It is filed as cell-based. The conditions noted are these: Homo sapiens, NCI-H460, 72 hours, percent cytotoxicity against DMSO control; for cytotoxicity at 1 µM: 1 μM compound, read-out: Cell toxicity NCI-H-460 cells 1 μM; for cytotoxicity at 10 µM: 10 μM compound, read-out: Cell toxicity NCI-H-460 cells 10 μM. The text has this: (§1) The following human derived non-small cell lung cancer cell lines were used to test the efficiency of the compounds to cause cell death and assess the anti-cancer properties of said compounds: 1. A549 cells: adenocarcinomic human alveolar basal epithelial cells; these cells are used as models for the study of lung cancer and the development of drug therapies against it • 2. NCI-H-460 cells are also human lung cancer cells, and • 3. NCI-H-522 cells are also human lung cancer cells.
(§2) 500 cells/well/30 μL were seeded in a 384 well cell culture plate. Incubated over night at 37° C., 5% CO2 in cell culture incubator. 10 μL of 4× compound was added to the plates, and incubated for 72 hours at 37° C., 5% CO2 in cell culture incubator. Assay DMSO control were included for 0% cytotoxicity control. Assay was terminated by addition of 10 μL of the reagent CTG 2.0 detection reagent #G9242. Plates were incubated for 20 minute incubation at room temperature with shaking Plate were read in Envision. Ultrasensitive luminescence and data was analyzed and percent cytotoxicity of compounds was determined against DMSO control.
(§3) All the compounds, A1-A116, were tested for cell toxicity using said non-small cell lung cancer cell lines using the above described method.

Another data set has as its system NCI-H-460. The data set is described as follows: CellTiter Glo assay, NCI-H-460. Type of data set: cell-based. The conditions noted are these: Homo sapiens, NCI-H460; 72 hours, 10 point DRC, 100 μM top; read-out: Cytotoxicity IC50 NCI-H-460.
Excerpt: as §1
(§4) Cells were cultured and maintained in F12K+10% FBS+1× anti-anti media and RPMI+10% FBS+1× anti-anti media. Cells were trypsinised and expanded to ensure that cells are not over-confluent and are in log growth phase. On day 0, 500 cells/well were seeded in 30 μl media using cell culture treated white flat bottom 384 well plate, centrifuged at 40×g for 10 seconds and incubated overnight in […], 5% CO2 incubator. On day 1, 4× concentration of compounds were prepared in complete media, 10 μl was added to cells, centrifuged at 40×g for 10 seconds and incubated 72 hours in 37° C., 5% CO2 incubator. Compounds tested: 100 μM top, 3 fold dilution and 10 point DRC in triplicate. Final DMSO concentration was maintained at 0.5% for all compound. No compound/DMSO was used as a control. On day 4 (72 hours post treatment) plates were brought to room temperature for 10 min 10 μl of CellTiter Glo reagent was added to each well and placed the plates on an orbital shaker for 10 minutes at room temperature. Luminescence signal was read on the Envision plate reader using the ultra-sensitive luminescence protocol. Data was plotted and analyzed using the below formula: DMSO control treated cells RLU considered as 100% cell viability.
(§5) Table 7 provides the IC50 values for cell toxicity of most efficient derivatives of Formula A.
For orientation: ATP-based viability assays read luminescence as a measure of living cells.

Data set [1] deals with Non-small cell lung cancer cell lines. The data set is described as follows: Cell toxicity assay, overall statement. The conditions noted are these: summary in words of Table 6. Type of data set: cell-based.
Excerpt: as §1, §2, §3
These selected derivatives of Formula A were further tested to confirm their efficiency as anti-cancer compounds.

The next data set deals with NCI-H-522. Put plainly: CellTiter Glo assay, NCI-H-522. Type of data set: cell-based. The conditions noted are these: Homo sapiens, NCI-H522; 72 hours, 10 point DRC, 100 μM top; read-out: Cytotoxicity IC50 NCI-H-522.
Excerpt: as §1, §4, §5

The test system of data set [2] is Non-small cell lung cancer cell lines. Put plainly: Cell Titer Glo assay, overall statement. It is filed as cell-based, human. The conditions noted are these: summary in words.
Excerpt: as §1, §4, §5

For a further data set, the system named is NCI-H-522 cells. Put plainly: Cell cytotoxicity assay, NCI-H-522 cells. The conditions noted are these: Homo sapiens, NCI-H522, 72 hours, percent cytotoxicity against DMSO control; for cytotoxicity at 1 µM: 1 μM compound, read-out: Cell toxicity NCI-H-522 cells 1 μM; for cytotoxicity at 10 µM: 10 μM compound, read-out: Cell toxicity NCI-H-522 cells 10 μM. Type of data set: cell-based.
Excerpt: as §1, §2, §3

Another data set has as its system A549 cells. Put plainly: Cell cytotoxicity assay, A549 cells. Type of data set: cell-based. The conditions noted are these: Homo sapiens, 72 hours, percent cytotoxicity against DMSO control; for cytotoxicity at 1 µM: 1 μM compound, read-out: Cell toxicity A549 cells 1 μM; for cytotoxicity at 10 µM: 10 μM compound, read-out: Cell toxicity A549 cells 10 μM.
Excerpt: as §1, §2, §3

The next data set deals with A549. The data set is described as follows: CellTiter Glo assay, A549. Type of data set: cell-based. The conditions noted are these: Homo sapiens, 72 hours, 10 point DRC, 100 μM top, read-out: Cytotoxicity IC50 A549.
Excerpt: as §1, §4, §5

The structures appear in SMILES notation.

`COc1cc(Nc2nc(C)cc(N3CCN(c4ccnc5cc(F)ccc45)CC3)n2)cc(OC)c1` [Compound A48, N-(3,5-dimethoxyphenyl)-4-(4-(7-fluoroquinolin-4-yl)piperazin-1-yl)-6-methylpyrimidin-2-amine]: the results for the cytotoxicity at 1 µM in the data set with NCI-H-460 cells, with NCI-H-522 cells and in the data set with A549 cells were 0%, 16% and 57%, respectively. The cytotoxicity at 10 µM in the data set on NCI-H-460 cells is 66%; in the data set on NCI-H-522 cells, 71%; in the data set with A549 cells, 98%. Further, the concentration for half-maximal inhibition (IC50) in the data set on NCI-H-460 was 1840 nM; in the data set on NCI-H-522, 3240 nM; in the data set on A549, 818 nM. Besides, the “activity against Non-small cell lung cancer (cell toxicity)” value in data set [1] is “active”. Besides, the “efficiency in cell toxicity against Non-small cell lung cancer cell lines” value in data set [2] is listed as “best efficiency”.

For the compound `COc1cc(Nc2nc(C)cc(N3CCN(c4ncnc5ccccc45)CC3)n2)cc(OC)c1` [Compound A46, N-(3,5-dimethoxyphenyl)-4-methyl-6-(4-(quinazolin-4-yl)piperazin-1-yl)pyrimidin-2-amine], the results for the cytotoxicity at 1 µM in the data set on NCI-H-460 cells, in the data set on NCI-H-522 cells and in the data set with A549 cells were -2%, 2% and 25%, respectively. The cytotoxicity at 10 µM with NCI-H-460 cells came to 44%; in the data set on NCI-H-522 cells it was 66%; in the data set with A549 cells, 98%. Also, the “activity against Non-small cell lung cancer (cell toxicity)” value in data set [1] is “active”.

`Cc1cc(N2CCN(c3ccnc4cc(Cl)ccc34)CC2)nc(N2CCCC2)n1` [Compound A11, 7-chloro-4-(4-(6-methyl-2-(pyrrolidin-1-yl)pyrimidin-4-yl)piperazin-1-yl)quinoline]: the cytotoxicity at 1 µM in the data set with NCI-H-460 cells was -12%; in the data set with NCI-H-522 cells, 2%; in the data set on A549 cells, 16%. In addition, the cytotoxicity at 10 µM with NCI-H-460 cells was -4%; in the data set on NCI-H-522 cells, 9%; in the data set with A549 cells, 10%. Further, the “activity against Non-small cell lung cancer (cell toxicity)” value in data set [1] was “active”.

As for `COc1cccc(Nc2nc(C)cc(N3CCN(c4ccnc5cc(Cl)ccc45)CC3)n2)c1` [Compound A4, 4-(4-(7-chloroquinolin-4-yl)piperazin-1-yl)-N-(3-methoxyphenyl)-6-methylpyrimidin-2-amine], the cytotoxicity at 1 µM with NCI-H-460 cells is -4%; with NCI-H-522 cells, 14%; in the data set on A549 cells it was 47%. The cytotoxicity at 10 µM amounted to 71% with NCI-H-460 cells, 57% with NCI-H-522 cells and 95% with A549 cells. Besides, in data set [1], the “activity against Non-small cell lung cancer (cell toxicity)” value was “active”.

Regarding `COc1cc(F)cc(Nc2nc(C)cc(N3CCN(c4ccnc5cc(Cl)ccc45)CC3)n2)c1` [Compound A5, 4-(4-(7-chloroquinolin-4-yl)piperazin-1-yl)-N-(3-fluoro-5-methoxyphenyl)-6-methylpyrimidin-2-amine], the cytotoxicity at 1 µM is -8% in the data set on NCI-H-460 cells, 6% with NCI-H-522 cells and 24% with A549 cells. Further, the results for the cytotoxicity at 10 µM with NCI-H-460 cells, with NCI-H-522 cells and with A549 cells were 7%, 22% and 5%, respectively. For the same compound, the “activity against Non-small cell lung cancer (cell toxicity)” value in data set [1] is “active”.

As to `COc1cccc(Nc2nc(N3CCN(c4ccnc5cc(Cl)ccc45)CC3)cc(C(F)(F)F)n2)c1` [Compound A8, 4-(4-(7-chloroquinolin-4-yl)piperazin-1-yl)-N-(3-methoxyphenyl)-6-(trifluoromethyl)pyrimidin-2-amine], the cytotoxicity at 1 µM in the data set with NCI-H-460 cells was -9%; in the data set on NCI-H-522 cells, 1%; with A549 cells, 14%. Further, the cytotoxicity at 10 µM with NCI-H-460 cells is -3%; with NCI-H-522 cells it was 7%; with A549 cells it was 5%. For the same compound, the “activity against Non-small cell lung cancer (cell toxicity)” value in data set [1] is “active”.

On to `Cc1cc(N2CCN(c3ccnc4cc(Cl)ccc34)CC2)nc(N2CCCCC2)n1` [Compound A12, 7-chloro-4-(4-(6-methyl-2-(piperidin-1-yl)pyrimidin-4-yl)piperazin-1-yl)quinoline], for which the values for the cytotoxicity at 1 µM with NCI-H-460 cells, with NCI-H-522 cells and with A549 cells were -9%, 5% and 10%, respectively. Further, the cytotoxicity at 10 µM in the data set on NCI-H-460 cells, with NCI-H-522 cells and in the data set with A549 cells was 99% each time. Moreover, the “activity against Non-small cell lung cancer (cell toxicity)” value in data set [1] is “active”.

`COc1cc(Nc2nc(N3CCN(c4ncnc5ccccc45)CC3)cc(C(F)(F)F)n2)cc(OC)c1` [Compound A47, N-(3,5-dimethoxyphenyl)-4-(4-(quinazolin-4-yl)piperazin-1-yl)-6-(trifluoromethyl)pyrimidin-2-amine]: the cytotoxicity at 1 µM came to 4% in the data set with NCI-H-460 cells, 45% with NCI-H-522 cells and 38% in the data set with A549 cells. Also, the values for the cytotoxicity at 10 µM in the data set with NCI-H-460 cells, in the data set with NCI-H-522 cells and in the data set on A549 cells were 12%, 43% and 44%, respectively. Further, the “activity against Non-small cell lung cancer (cell toxicity)” value in data set [1] was “active”.

`Cc1cc(N2CCN(c3ccnc4cc(Cl)ccc34)CC2)nc(Nc2ccccc2)n1` [Compound A39, 4-(4-(7-chloroquinolin-4-yl)piperazin-1-yl)-6-methyl-N-phenylpyrimidin-2-amine]: the cytotoxicity at 1 µM in the data set with NCI-H-460 cells was -11%; with NCI-H-522 cells, 1%; in the data set with A549 cells, 4%. For the same compound, the values for the cytotoxicity at 10 µM in the data set with NCI-H-460 cells, in the data set on NCI-H-522 cells and in the data set with A549 cells were -4%, 15% and 18%, respectively. Further, the “activity against Non-small cell lung cancer (cell toxicity)” value in data set [1] is given as “active”.

Regarding `CN1CCN(c2nc(N3CCN(c4ccnc5cc(Cl)ccc45)CC3)cc(C(F)(F)F)n2)CC1` [Compound A23, 7-chloro-4-(4-(2-(4-methylpiperazin-1-yl)-6-(trifluoromethyl)pyrimidin-4-yl)piperazin-1-yl)quinoline], the cytotoxicity at 1 µM with NCI-H-460 cells was -15%; with NCI-H-522 cells, 1%; in the data set with A549 cells it was 12%. The cytotoxicity at 10 µM in the data set on NCI-H-460 cells is -2%; with NCI-H-522 cells, 9%; in the data set on A549 cells, 13%. The “activity against Non-small cell lung cancer (cell toxicity)” value in data set [1] is “active”.

Consider `COc1cc(Nc2nc(N3CCN(c4ccnc5cc(Cl)ccc45)CC3)cc(C(F)(F)F)n2)cc(C(F)(F)F)c1` [Compound A6, 4-(4-(7-chloroquinolin-4-yl)piperazin-1-yl)-N-(3-methoxy-5-(trifluoromethyl)phenyl)-6-(trifluoromethyl)pyrimidin-2-amine], for which the cytotoxicity at 1 µM with NCI-H-460 cells was -7%; in the data set on NCI-H-522 cells, 7%; in the data set with A549 cells, 15%. In addition, the cytotoxicity at 10 µM was -1% in the data set with NCI-H-460 cells, 21% in the data set with NCI-H-522 cells and 4% in the data set with A549 cells. Further, the “activity against Non-small cell lung cancer (cell toxicity)” value in data set [1] is recorded as “active”.
